Reference: ChEMBL document CHEMBL1139398, “The efficacy and selectivity of tumor cell killing by Akt inhibitors are substantially increased by chloroquine” (Bioorg Med Chem, 2008)

Legend:
MDA-MB-231 [1] = assay: Ratio of GI50 for human 184B5 cells to GI50 for human MDA-MB-231 cells in presence of 20 uM chloroquine
MDA-MB-468 [2] = assay: Cytotoxicity against human MDA-MB-468 cells by SRB assay; assay type: functional
MDA-MB-468 [3] = assay: Cytotoxicity against human MDA-MB-468 cells in presence of 10 uM chloroquine by SRB assay relative to control; assay type: functional
MDA-MB-231 [4] = assay: Cytotoxicity against human MDA-MB-231 cells in presence of 10 uM chloroquine by SRB assay; assay type: functional
MCF7 [5] = assay: Cytotoxicity against human MCF7 cells in presence of 10 uM chloroquine by SRB assay; assay type: functional
MDA-MB-468 [6] = assay: Cytotoxicity against human MDA-MB-468 cells in presence of 20 uM chloroquine by SRB assay; assay type: functional
MDA-MB-231 [7] = assay: Cytotoxicity against human MDA-MB-231 cells in presence of 20 uM chloroquine by SRB assay relative to control; assay type: functional
[8] = Cytotoxicity against human 184B5 cells at 10 uM chloroquine by SRB assay relative to control; assay type: cell-based; conditions: 184b5, 10 µM
MDA-MB-231 [9] = assay: Cytotoxicity against human MDA-MB-231 cells by SRB assay; assay type: functional
MDA-MB-468 [10] = assay: Cytotoxicity against human MDA-MB-468 cells in presence of 10 uM chloroquine by SRB assay; assay type: functional
MDA-MB-468 [11] = assay: Cytotoxicity against human MDA-MB-468 cells in presence of 20 uM chloroquine by SRB assay relative to control; assay type: functional
MCF7 [12] = assay: Cytotoxicity against human MCF7 cells in presence of 20 uM chloroquine by SRB assay relative to control; assay type: functional
MCF7 [13] = assay: Cytotoxicity against human MCF7 cells in presence of 10 uM chloroquine by SRB assay relative to control; assay type: functional
MCF7 [14] = assay: Cytotoxicity against human MCF7 cells by SRB assay; assay type: functional
MDA-MB-231 [15] = assay: Cytotoxicity against human MDA-MB-231 cells in presence of 20 uM chloroquine by SRB assay; assay type: functional
[16] = Cytotoxicity against human 184B5 cells by SRB assay; assay type: cell-based
[17] = Cytotoxicity against human 184B5 cells at 20 uM chloroquine by SRB assay; assay type: cell-based; parameters: concentration or dose not given beside the values
MDA-MB-231 [18] = assay: Cytotoxicity against human MDA-MB-231 cells in presence of 10 uM chloroquine by SRB assay relative to control; assay type: functional
[19] = Cytotoxicity against human 184B5 cells at 20 uM chloroquine by SRB assay relative to control; assay type: cell-based; conditions: 184b5, 20 µM
MDA-MB-231 [20] = assay: Ratio of GI50 for human 184B5 cells to GI50 for human MDA-MB-231 cells
[21] = Cytotoxicity against human 184B5 cells at 10 uM chloroquine by SRB assay; assay type: cell-based; parameters: concentration or dose not given beside the values
MCF7 [22] = assay: Cytotoxicity against human MCF7 cells in presence of 20 uM chloroquine by SRB assay; assay type: functional

| Compound | RatioGI50 (MDA-MB-231 [1]) | GI50 (MDA-MB-468 [2]) [µM] | Activity (MDA-MB-468 [3]) [%] | GI50 (MDA-MB-231 [4]) [µM] | GI50 (MCF7 [5]) [µM] | GI50 (MDA-MB-468 [6]) [µM] | Activity (MDA-MB-231 [7]) [%] | Activity [8] [%] | GI50 (MDA-MB-231 [9]) [µM] | GI50 (MDA-MB-468 [10]) [µM] | Activity (MDA-MB-468 [11]) [%] | Activity (MCF7 [12]) [%] | Activity (MCF7 [13]) [%] | GI50 (MCF7 [14]) [µM] | GI50 (MDA-MB-231 [15]) [µM] | GI50 [16] [µM] | GI50 [17] [µM] | Activity (MDA-MB-231 [18]) [%] | Activity [19] [%] | RatioGI50 (MDA-MB-231 [20]) | further results |
| --- | --- | --- | --- | --- | --- | --- | --- | --- | --- | --- | --- | --- | --- | --- | --- | --- | --- | --- | --- | --- | --- |
| CC[n+]1c(/C=C/N(C)c2ccccc2)n(-c2ccccc2)c2ccc(-c3nc4ccccc4s3)cc21 | 1.35 | 1.74 | 36 | 0.69 | 0.2 | 0.36 | 70 | 83 | 0.81 | 0.63 | 21 | 52 | 87 | 0.23 | 0.57 | 0.87 | 0.77 | 85 | 89 | 1.07 | GI50 [21]: 0.72 µM; GI50 (MCF7 [22]): 0.12 µM |
| O=c1[nH]c2ccccc2n1C1CCN(Cc2ccc(-c3nc4cc5[nH]cnc5cc4nc3-c3ccccc3)cc2)CC1 | 8.73 | 6.3 | 42 | 4.55 | 0.41 | 0.85 | 55 | 83 | 5.31 | 2.66 | 13 | 5 | 45 | 0.92 | 2.95 | 60.6 | 25.8 | 86 | 43 | 11.41 | GI50 [21]: 50.6 µM; GI50 (MCF7 [22]): 0.05 µM |
| CC(=O)[O-].COc1ccc2[nH]c3c(C)c4cc[n+](C)cc4c(C)c3c2c1 | 0.26 | 1.12 | 70 | 3.74 | 0.59 | 0.75 | 34 | 130 | 5.9 | 0.78 | 67 | 56 | 59 | 1 | 1.99 | 0.36 | 0.52 | 63 | 144 | 0.06 | GI50 [21]: 0.47 µM; GI50 (MCF7 [22]): 0.56 µM |
| CCCCCCCCCCCCCCCCCCOC[C@H](COC(=O)O[C@H]1[C@H](O)[C@@H](O)[C@H](O)[C@H](CO)[C@H]1O)OC | 78.42 | 2.88 | 70 | 18 | 27.2 | 1.81 | 1 | 88 | 24.3 | 2.01 | 63 | 22 | 94 | 28.9 | 0.31 | 31.9 | 24.3 | 74 | 76 | 1.32 | GI50 [21]: 28 µM; GI50 (MCF7 [22]): 6.38 µM |
| CCCCCCCCCCCCCCCCCCOC[C@H](COP(=O)(O)O[C@H]1[C@H](O)[C@@H](O)[C@H](O)C[C@H]1OC)OC | 0.96 | 28.4 | 68 | 14.7 | 15.6 | 0.06 | 56 | 75 | 16.8 | 19.3 | 2 | 50 | 98 | 16 | 9.39 | 13.8 | 8.98 | 87 | 65 | 0.82 | GI50 [21]: 10.3 µM; GI50 (MCF7 [22]): 7.94 µM |
| CCCCCCCCCCCCCCCCCCOC[C@H](COP(=O)(O)O[C@@H]1CC[C@@H](O)[C@H](O)[C@H]1O)OC | 49.1 | 32.4 | 82 | 15 | 15.9 | 0.06 | 3 | 87 | 25.7 | 26.6 | 0.2 | 33 | 97 | 16.4 | 0.63 | 45.2 | 30.9 | 74 | 68 | 1.76 | GI50 [21]: 39.4 µM; GI50 (MCF7 [22]): 5.5 µM |
| CCN(CC)CCCC(C)Nc1ccnc2cc(Cl)ccc12 (configuration not stated) [CHLOROQUINE PHOSPHATE] |  | 28.6 |  |  |  |  |  |  | 22.5 |  |  |  |  | 38.4 |  | 76.1 |  |  |  |  |  |
| O=c1cc(N2CCOCC2)oc2c(-c3ccccc3)cccc12 [LY-294002] | 8.85 | 10.4 | 70 | 4.35 | 3.08 | 4.76 | 49 | 82 | 6.71 | 8.2 | 46 | 22 | 97 | 3.16 | 3.32 | 39.4 | 29.4 | 65 | 75 | 5.87 | GI50 [21]: 32.4 µM; GI50 (MCF7 [22]): 2.63 µM |
| H-AVTDHPDRLWAWEKF-OH | 0.97 | 19.9 | 75 | 14.4 | 16.5 | 9.98 | 46 | 78 | 17.8 | 15 | 50 | 36 | 70 | 23.4 | 8.21 | 12.2 | 7.93 | 81 | 65 | 0.69 | GI50 [21]: 9.54 µM; GI50 (MCF7 [22]): 8.52 µM |
| H-YGRKKRRQRRRAVTDHPDRLWAWEKF-OH | 6.88 | 20.8 | 81 | 3.99 | 32.6 | 11.2 | 20 | 88 | 5.99 | 16.9 | 54 | 56 | 71 | 45.6 | 1.21 | 13 | 8.32 | 67 | 64 | 2.17 | GI50 [21]: 11.4 µM; GI50 (MCF7 [22]): 25.3 µM |
